This passage reports IC50 results from US12344595B2, “2-amino-n-phenyl-nicotinamides as NAV1.8 inhibitors” (Merck Sharp & Dohme LLC, priority 2018, dated 2025).

The test has as its target human Nav1.8 (Homo sapiens (Human), UniProt Q9Y5Y9). Description: Nav1.8 Qube automated patch-clamp assay. Type of test: cell-based. The settings on record: Nav1.8 Qube Assay; human Nav1.8 channels stably expressed in HEK 293 cells. In outline: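 IC50 values came from Hill fitting of peak currents: pulse 1 for resting-state and pulse 10 for inactivated-state inhibition. Currents were recorded in stably transfected HEK293 cells at room temperature, with ten 20 ms steps to 10 mV at 1 Hz from a −90 mV hold. External solution was 150 mM NaCl-based; internal solution was CsF/CsCl.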
(In general: Patch clamp records ionic current or voltage across a cell membrane.)

A word on the IC50: it is the concentration needed to halve the response being measured. A low value points to greater potency in that assay.

Sequence of human Nav1.8 (Q9Y5Y9 whole entry): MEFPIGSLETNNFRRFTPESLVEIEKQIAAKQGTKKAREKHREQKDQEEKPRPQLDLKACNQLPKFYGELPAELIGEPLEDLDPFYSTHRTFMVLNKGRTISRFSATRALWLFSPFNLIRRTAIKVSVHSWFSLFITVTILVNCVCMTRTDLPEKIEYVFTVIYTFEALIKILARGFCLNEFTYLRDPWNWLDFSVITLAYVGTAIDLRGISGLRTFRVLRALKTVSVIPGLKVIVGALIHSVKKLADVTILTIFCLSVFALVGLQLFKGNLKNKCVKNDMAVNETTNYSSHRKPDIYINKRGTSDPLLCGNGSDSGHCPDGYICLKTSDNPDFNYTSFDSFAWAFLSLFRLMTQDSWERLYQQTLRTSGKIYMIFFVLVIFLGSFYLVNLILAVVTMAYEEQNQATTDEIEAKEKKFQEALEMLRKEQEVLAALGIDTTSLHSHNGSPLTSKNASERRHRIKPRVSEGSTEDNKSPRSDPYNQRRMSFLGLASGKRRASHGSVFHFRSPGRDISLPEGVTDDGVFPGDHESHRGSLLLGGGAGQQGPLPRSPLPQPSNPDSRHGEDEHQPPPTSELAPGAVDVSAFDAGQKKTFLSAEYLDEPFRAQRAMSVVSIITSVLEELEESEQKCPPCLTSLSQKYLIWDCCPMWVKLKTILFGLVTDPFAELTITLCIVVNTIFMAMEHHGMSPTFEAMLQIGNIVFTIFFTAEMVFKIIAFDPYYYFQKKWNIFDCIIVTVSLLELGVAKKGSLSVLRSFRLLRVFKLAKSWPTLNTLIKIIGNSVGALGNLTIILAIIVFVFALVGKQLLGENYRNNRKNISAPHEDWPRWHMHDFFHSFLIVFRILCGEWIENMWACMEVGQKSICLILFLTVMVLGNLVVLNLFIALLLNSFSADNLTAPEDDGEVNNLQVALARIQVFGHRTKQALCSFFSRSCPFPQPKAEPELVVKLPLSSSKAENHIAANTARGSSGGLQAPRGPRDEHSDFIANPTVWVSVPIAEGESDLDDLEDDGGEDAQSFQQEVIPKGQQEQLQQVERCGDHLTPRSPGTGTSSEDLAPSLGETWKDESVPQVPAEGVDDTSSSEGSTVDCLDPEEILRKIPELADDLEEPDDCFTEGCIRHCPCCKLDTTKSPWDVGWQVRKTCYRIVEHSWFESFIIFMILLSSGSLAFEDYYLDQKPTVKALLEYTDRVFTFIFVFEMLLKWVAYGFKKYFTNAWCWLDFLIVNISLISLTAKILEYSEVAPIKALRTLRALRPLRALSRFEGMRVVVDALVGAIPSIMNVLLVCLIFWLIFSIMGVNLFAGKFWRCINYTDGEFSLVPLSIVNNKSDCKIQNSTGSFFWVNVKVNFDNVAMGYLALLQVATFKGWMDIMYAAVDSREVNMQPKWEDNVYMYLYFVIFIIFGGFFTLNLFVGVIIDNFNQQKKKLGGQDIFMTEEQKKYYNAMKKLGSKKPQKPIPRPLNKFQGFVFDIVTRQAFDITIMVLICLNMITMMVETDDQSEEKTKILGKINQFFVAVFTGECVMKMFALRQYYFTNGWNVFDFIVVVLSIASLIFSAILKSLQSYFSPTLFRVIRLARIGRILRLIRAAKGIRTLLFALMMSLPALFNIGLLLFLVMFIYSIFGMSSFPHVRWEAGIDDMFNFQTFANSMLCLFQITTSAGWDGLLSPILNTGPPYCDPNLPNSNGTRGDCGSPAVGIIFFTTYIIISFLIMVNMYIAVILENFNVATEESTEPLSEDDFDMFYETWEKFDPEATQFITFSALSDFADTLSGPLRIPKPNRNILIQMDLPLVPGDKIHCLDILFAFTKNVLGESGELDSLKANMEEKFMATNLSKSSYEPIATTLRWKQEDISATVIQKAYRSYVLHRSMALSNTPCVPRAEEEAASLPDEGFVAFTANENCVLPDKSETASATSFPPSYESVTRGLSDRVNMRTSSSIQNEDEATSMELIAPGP

`CC(C)(C)c1nc(N2CCCCC2)c(C(=O)Nc2cccc(S(N)(=O)=O)c2)cc1Cl` [Example 40, 6-(tert-butyl)-5-chloro-2-(piperidin-1-yl)-N-(3-sulfamoylphenyl)nicotinamide] yielded a concentration for half-maximal inhibition (IC50) of 1180 nM.
For `NS(=O)(=O)c1cccc(NC(=O)c2cc(C(F)(F)F)cnc2N2CCCC3(CC2)CC3)c1` [Example 79, 2-(6-azaspiro[2.6]nonan-6-yl)-N-(3-sulfamoyl-phenyl)-5-(trifluoro-methyl)nicotinamide] the value was 10 nM.
In turn, `Cc1nc(N2CCCCC2)c(C(=O)Nc2cccc(C(N)=O)c2)c(C)c1Cl` [Example 19, N-(3-carbamoyl-phenyl)-5-chloro-4,6-dimethyl-2-(1-piperidyl)pyridine-3-carboxamide] showed an IC50 of 295 nM.
The same measure for `NC(=O)c1cccc(NC(=O)c2cc(Cl)cnc2N2CCCC(F)(F)CC2)c1` [Example 15, N-(3-carbamoyl-phenyl)-5-chloro-2-(4,4-difluoroazepan-1-yl)pyridine-3-carboxamide]: 19 nM; for `Cc1nc(N2CCCCC2)c(C(=O)Nc2cccc(S(C)(=O)=O)c2)c(C)c1Cl` [Example 12, 5-chloro-4,6-dimethyl-N-(3-methylsulfonyl-phenyl)-2-(1-piperidyl)pyridine-3-carboxamide]: 54 nM.
`COc1ccc(C(=O)Nc2cccc(S(C)(=O)=O)c2)c(N2CCCC(F)(F)CC2)n1` [Example 11, 2-(4,4-difluoroazepan-1-yl)-6-methoxy-N-(3-methylsulfonylphenyl) pyridine-3-carboxamide] gave a half-inhibitory concentration (IC50) of 31 nM.
The molecule `Cc1ccc(C(=O)Nc2cccc(C(N)=O)c2)c(N2CCCC(F)(F)CC2)n1` [Example 75, N-(3-carbamoylphenyl)-2-(4,4-difluoroazepan-1-yl)-6-methylnicotinamide] returned a half-maximal inhibitory concentration (IC50) of 16 nM.
For `NS(=O)(=O)c1cccc(NC(=O)c2cc(C(F)(F)F)nnc2N2CCCC(F)(F)CC2)c1` [Example 181, 3-(4,4-difluoroazepan-1-yl)-N-(3-sulfamoylphenyl)-6-(trifluoromethyl)pyridazine-4-carboxamide], the concentration for half-maximal inhibition (IC50) is 70 nM. This IC50 is about 4.4-fold higher than that of the molecule before.
For `CS(=O)(=O)c1cccc(NC(=O)c2cc(C(F)(F)F)cnc2N2CCCC(F)(F)CC2)c1` [Example 94, 2-(4,4-difluoroazepan-1-yl)-N-(3-methylsulfonylphenyl)-5-(trifluoromethyl)-pyridine-3-carboxamide] the value was 8.4 nM; for `CC(C)CC1CCCCCN1c1ncc(C(F)(F)F)cc1C(=O)Nc1cccc(S(N)(=O)=O)c1` (stereo not shown) [Example 68, 2-(2-isobutylazepan-1-yl)-N-(3-sulfamoyl-phenyl)-5-(trifluoro-methyl)pyridine-3-carboxamide], 3650 nM; for `NS(=O)(=O)c1cccc(NC(=O)c2cc(C(F)(F)F)cnc2N2CC3CCCC32)c1` (stereo not shown) [Example 59, 2-(6-azabicyclo[3.2.0]heptan-6-yl)-N-(3-sulfamoyl-phenyl)-5-(trifluoro-methyl)pyridine-3-carboxamide], 698 nM.
For `NS(=O)(=O)c1cccc(NC(=O)c2cc(C(F)(F)F)cnc2N2CCNC(C(F)(F)F)C2)c1` (stereo not shown) [Example 143, N-(3-sulfamoylphenyl)-5-(trifluoromethyl)-2-[3-(trifluoromethyl)-piperazin-1-yl]pyridine-3-carboxamide] the value was 2180 nM.
For `NS(=O)(=O)c1cccc(NC(=O)c2cc(F)cnc2N2CCCCC2)c1` [Example 6, 5-fluoro-2-(1-piperidyl)-N-(3-sulfamoyl-phenyl)pyridine-3-carboxamide] the value was 8320 nM.
In turn, `C[Si](C)(C)c1cnc(N2CCC3(CC2)COC3)c(C(=O)Nc2cccc(S(N)(=O)=O)c2)c1` [Example 87, 2-(2-oxa-7-azaspiro-[3.5]nonan-7-yl)-N-(3-sulfamoylphenyl)-5-(trimethylsilyl)-nicotinamide] had an IC50 of 7880 nM.
For `NS(=O)(=O)c1cccc(NC(=O)c2cc(C(F)(F)F)cnc2N2CCC3(CCCO3)CC2)c1` [Example 72, 2-(1-oxa-8-azaspiro[4.5]decan-8-yl)-N-(3-sulfamoyl-phenyl)-5-(trifluoro-methyl)pyridine-3-carboxamide] the value was 6610 nM; for `NS(=O)(=O)c1cccc(NC(=O)c2cc(C(F)(F)F)cnc2N2CC3CCC3(C(F)(F)F)C2)c1` (single isomer, unassigned) [Example 130, N-(3-sulfamoylphenyl)-5-(trifluoromethyl)-2-[(1R,5R or 1S,5S)-1-(trifluoromethyl)-3-azabicyclo[3.2.0]heptan-3-yl]pyridine-3-carboxamide], 16 nM.
The same measure for `NS(=O)(=O)c1cccc(NC(=O)c2cc(C(F)(F)F)cnc2N2CCCC[C@H](F)C2)c1` [Example 54, 2-[(3S)-3-fluoroazepan-1-yl]-N-(3-sulfamoyl-phenyl)-5-(trifluoro-methyl)pyridine-3-carboxamide]: 338 nM; for `NS(=O)(=O)c1cccc(NC(=O)c2ccc(C(F)(F)C(F)(F)F)nc2N2CCCCC2)c1` [Example 165, 6-(1,1,2,2,2-pentafluoroethyl)-2-(1-piperidyl)-N-(3-sulfamoylphenyl) pyridine-3-carboxamide]: 342 nM.
The same measure for `NS(=O)(=O)c1cccc(NC(=O)c2ccc(OC(F)(F)F)nc2N2CCCCC2)c1` [Example 84, 2-(piperidin-1-yl)-N-(3-sulfamoylphenyl)-6-(trifluoromethoxy)nicotinamide]: 248 nM.
The molecule `CC(C)CS(=O)(=O)c1cccc(NC(=O)c2cc(C(F)(F)F)cnc2N2CCCCCC2)c1` [Example 119, 2-(azepan-1-yl)-N-(3-isobutylsulfonylphenyl)-5-(trifluoromethyl)-pyridine-3-carboxamide] gave an IC50 of 2400 nM.
Molecule `COc1ccc(C(=O)Nc2cccc(C(N)=O)c2)c(N2CCCC(F)(F)CC2)n1` [Example 18, N-(3-carbamoyl-phenyl)-2-(4,4-difluoroazepan-1-yl)-6-methoxy-pyridine-3-carboxamide] returned an IC50 of 52 nM. This IC50 is about 46-fold lower than that of the molecule before.
`NS(=O)(=O)c1cccc(NC(=O)c2cc(C(F)(F)F)cnc2N2CC3CC2CC3(F)F)c1` (single isomer, unassigned) [Example 138, 2-[(1R,4R or 1S,4S)-5,5-difluoro-2-azabicyclo-[2.2.1]heptan-2-yl]-N-(3-sulfamoylphenyl)-5-(trifluoromethyl)-pyridine-3-carboxamide] showed an IC50 of 881 nM.
In turn, `NS(=O)(=O)c1cccc(NC(=O)c2cc(F)c(Cl)nc2N2CCCCCC2)c1` [Example 92, 2-(azepan-1-yl)-6-chloro-5-fluoro-N-(3-sulfamoylphenyl)-pyridine-3-carboxamide] showed an IC50 of 31 nM.
`C[C@H]1CN(c2ncc(C(F)(F)F)cc2C(=O)Nc2cccc(S(N)(=O)=O)c2)C[C@H](C(F)(F)F)O1` [Example 145, 2-[(2S,6R)-2-methyl-6-(trifluoromethyl)morpholin-4-yl]-N-(3-sulfamoyl-phenyl)-5-(trifluoro-methyl)pyridine-3-carboxamide] yielded a 50% inhibitory concentration (IC50) of 15 nM.
For `CC(C)(C)c1ccc(C(=O)Nc2cccc(S(N)(=O)=O)c2)c(N2CCCCC2)n1` [Example 42, 6-(tert-butyl)-2-(piperidin-1-yl)-N-(3-sulfamoylphenyl)nicotinamide] the value was 2680 nM; for `CC1CN(c2ncc(C(F)(F)F)cc2C(=O)Nc2ccc3c(c2)S(=O)(=O)NC3)CCC1(F)F` (single isomer, unassigned) [Example 113, 2-[(3S or 3R)-4,4-difluoro-3-methyl-1-piperidyl]-N-(1,1-dioxo-2,3-dihydro-1,2-benzothiazol-6-yl)-5-(trifluoromethyl) pyridine-3-carboxamide], 73 nM; for `NS(=O)(=O)c1cccc(NC(=O)c2cc(C(F)(F)F)cnc2N2CC3COC(C3)C2)c1` (stereo not shown) [Example 64, 2-(6-oxa-3-azabicyclo[3.2.1]octan-3-yl)-N-(3-sulfamoyl-phenyl)-5-(trifluoro-methyl)pyridine-3-carboxamide], 2160 nM.
The same measure for `NS(=O)(=O)c1cc(NC(=O)c2cc(C(F)(F)F)cnc2N2CCC(F)(F)CC2)cc(F)c1F` [Example 171, N-(3,4-difluoro-5-sulfamoylphenyl)-2-(4,4-difluoropiperidin-1-yl)-5-(trifluoro-methyl)nicotinamide]: 137 nM.
The same measure for `NS(=O)(=O)c1cccc(NC(=O)c2cc(C(F)(F)F)cnc2N2C3CCC2CC3)c1` [Example 139, 2-(7-azabicyclo[2.2.1]heptan-7-yl)-N-(3-sulfamoyl-phenyl)-5-(trifluoro-methyl)pyridine-3-carboxamide]: 3460 nM.
Molecule `NS(=O)(=O)c1cccc(NC(=O)c2ccc(Cl)nc2N2CCCCCC2)c1` [Example 89, 2-(azepan-1-yl)-6-chloro-N-(3-sulfamoyl-phenyl)pyridine-3-carboxamide] returned a half-maximal inhibitory concentration (IC50) of 16 nM.
The same measure for `CS(=O)(=O)c1cccc(NC(=O)c2ccc(Cl)nc2N2CCCC(F)(F)CC2)c1` [Example 9, 6-chloro-2-(4,4-difluoroazepan-1-yl)-N-(3-methylsulfonyl-phenyl)pyridine-3-carboxamide]: 7 nM; for `NS(=O)(=O)c1cccc(NC(=O)c2cc(C(F)(F)F)cnc2N2CCCOCC2)c1` [Example 56, 2-(1,4-oxazepan-4-yl)-N-(3-sulfamoylphenyl)-5-(trifluoromethyl)-pyridine-3-carboxamide]: 448 nM; for `O=C(Nc1cccc(S(=O)(=O)Nc2ccncn2)c1)c1cc(C(F)(F)F)cnc1N1CCCCCC1` [Example 151, 2-(azepan-1-yl)-3-((3-(N-(pyrimidin-4-yl)sulfamoyl)phenyl)carbamoyl)-5-(trifluoromethyl)pyridin-1-ium]: 687 nM.
The same measure for `Cc1nc(N2CCCC(F)(F)CC2)c(C(=O)Nc2cccc(C(N)=O)c2)cc1C#N` [Example 177, N-(3-carbamoylphenyl)-5-cyano-2-(4,4-difluoroazepan-1-yl)-6-methyl-pyridine-3-carboxamide]: 28 nM.
